Tests used:
[1] = molecular target: T1, Solute carrier organic anion transporter family member 1B1 (Homo sapiens, UniProt Q9Y6L6); assay: Inhibition of OATP1B1 (unknown origin) expressed in HEK293 cells using estradiol-17beta-glucuronide substrate; format: ADME, cell-based
T1 sequence (Q9Y6L6 whole entry): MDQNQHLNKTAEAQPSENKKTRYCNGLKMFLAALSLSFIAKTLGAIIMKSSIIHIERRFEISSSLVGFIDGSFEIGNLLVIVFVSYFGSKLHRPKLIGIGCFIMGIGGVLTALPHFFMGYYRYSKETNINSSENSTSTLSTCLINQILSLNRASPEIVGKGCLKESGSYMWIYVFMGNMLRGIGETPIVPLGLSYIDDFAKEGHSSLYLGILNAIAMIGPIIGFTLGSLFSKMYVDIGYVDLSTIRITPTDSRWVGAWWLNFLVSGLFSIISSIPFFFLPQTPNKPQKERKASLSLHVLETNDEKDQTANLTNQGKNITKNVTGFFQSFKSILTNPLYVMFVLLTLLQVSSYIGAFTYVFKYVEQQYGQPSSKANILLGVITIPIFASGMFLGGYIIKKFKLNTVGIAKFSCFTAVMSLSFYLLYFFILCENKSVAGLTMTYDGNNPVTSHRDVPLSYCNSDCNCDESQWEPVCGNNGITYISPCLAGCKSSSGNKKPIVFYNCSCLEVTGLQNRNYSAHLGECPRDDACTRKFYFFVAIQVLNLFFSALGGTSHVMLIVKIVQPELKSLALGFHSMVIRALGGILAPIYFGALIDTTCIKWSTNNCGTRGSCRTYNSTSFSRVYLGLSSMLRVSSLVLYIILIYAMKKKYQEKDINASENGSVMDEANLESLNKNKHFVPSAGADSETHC

[2] = molecular target: T1, Solute carrier organic anion transporter family member 1B1; assay: Inhibition of OATP1B1 (unknown origin) expressed in HEK293 cells using estrone-3-sulfate substrate; format: ADME, cell-based
[3] = molecular target: T1, Solute carrier organic anion transporter family member 1B1; assay: Inhibition of OATP1B1 (unknown origin) expressed in HEK293 cells using pitavastatin substrate; format: ADME, cell-based
[4] = substrate: O=C(O)C[C@H](O)C[C@H](O)/C=C/c1c(C2CC2)nc2ccccc2c1-c1ccc(F)cc1; assay: (§1) Drug uptake in HEK293 cells expressing OATP1B1 (unknown origin) assessed as OATP1B1-mediated drug transport; format: ADME, cell-based, Homo sapiens
[5] = substrate: C[C@]12CC[C@@H]3c4ccc(O)cc4CC[C@H]3[C@@H]1CC[C@@H]2O[C@@H]1O[C@H](C(=O)O)[C@@H](O)[C@H](O)[C@H]1O; assay: as §1; format: ADME, cell-based, Homo sapiens

Question: What does the source list for `CO[C@H]1/C=C/O[C@@]2(C)Oc3c(C)c(O)c4c(O)c(c(/C=N/N5CCN(C)CC5)c(O)c4c3C2=O)NC(=O)/C(C)=C\C=C\[C@H](C)[C@H](O)[C@@H](C)[C@@H](O)[C@@H](C)[C@H](OC(C)=O)[C@@H]1C` [RIFAMPIN]?
Answer: IC50 [1]: 0.3 µM; IC50 [2]: 2.3 µM

Question: For `Cc1ccc(C)c(OCCCC(C)(C)C(=O)O)c1` [GEMFIBROZIL], which IC50 [1] is on record?
Answer: The IC50 was 11 µM.

Question: And the IC50 [2]?
Answer: Its IC50 is 130 µM.

Question: And the IC50 [3]?
Answer: The IC50 was 38 µM.

B1: Solute carrier organic anion transporter family member 1B1 (Homo sapiens) (protein)
chain: MDQNQHLNKTAEAQPSENKKTRYCNGLKMFLAALSLSFIAKTLGAIIMKSSIIHIERRFEISSSLVGFIDGSFEIGNLLVIVFVSYFGSKLHRPKLIGIGCFIMGIGGVLTALPHFFMGYYRYSKETNINSSENSTSTLSTCLINQILSLNRASPEIVGKGCLKESGSYMWIYVFMGNMLRGIGETPIVPLGLSYIDDFAKEGHSSLYLGILNAIAMIGPIIGFTLGSLFSKMYVDIGYVDLSTIRITPTDSRWVGAWWLNFLVSGLFSIISSIPFFFLPQTPNKPQKERKASLSLHVLETNDEKDQTANLTNQGKNITKNVTGFFQSFKSILTNPLYVMFVLLTLLQVSSYIGAFTYVFKYVEQQYGQPSSKANILLGVITIPIFASGMFLGGYIIKKFKLNTVGIAKFSCFTAVMSLSFYLLYFFILCENKSVAGLTMTYDGNNPVTSHRDVPLSYCNSDCNCDESQWEPVCGNNGITYISPCLAGCKSSSGNKKPIVFYNCSCLEVTGLQNRNYSAHLGECPRDDACTRKFYFFVAIQVLNLFFSALGGTSHVMLIVKIVQPELKSLALGFHSMVIRALGGILAPIYFGALIDTTCIKWSTNNCGTRGSCRTYNSTSFSRVYLGLSSMLRVSSLVLYIILIYAMKKKYQEKDINASENGSVMDEANLESLNKNKHFVPSAGADSETHC
Question: How did the Km [4] turn out when B1 was run?
Answer: Its Km is 4.8 µM.

Question: And the Vmax [4]?
Answer: Its Vmax is 0.00045 µmol/min.

Question: What about the Km [5] of the same molecule?
Answer: The Km was 3.6 µM.

Question: And the Vmax [5]?
Answer: The Vmax was 0.0002 µmol/min.

From ChEMBL document CHEMBL3525911, “The development, characterization, and application of an OATP1B1 inhibition assay in drug discovery” (Drug Metab Dispos, 2012)
